Among the data in a melting point compilation (Tetko et al.; mined from patent text by program, amines drawn as free bases though some values may be those of a salt) are melting point values, retold here.

One may read the melting point as the temperature of the solid-liquid transition. In the case of `Cc1cn(C2CC(O[Si](c3ccccc3)(c3ccccc3)C(C)(C)C)C(CI)O2)c(=O)[nH]c1=O` (stereo not drawn), the melting point is 142 °C.
Then `Cc1nc2c(N)nc3ccccc3c2n1CCOCCCc1ccccc1`, with 130 to 131 °C; and `CCOC(=O)CCCOc1ccc2c(c1)C(=O)CCC2`, with 62 to 63 °C.
`N#CC1(NC(=O)c2ccccc2C(=O)O)CCCCC1` came in with a melting point of 154 to 156 °C.
Then `COc1cc2ncc(C#N)c(Nc3cccc(N(C)C)c3)c2cc1OC`, with 246 to 249 °C.
Next, `COc1ccc(CCN2CCC(Nc3nc4cncnc4n3Cc3ccccn3)CC2)cc1`: 144 °C; `CCOC(=O)CNC(=O)Oc1ccc([N+](=O)[O-])c2cccnc12`: 121 to 122 °C; `COc1ccc(S(=O)(=O)Nc2cccnc2Nc2ccccc2)cc1OC`: 171 to 172 °C.
Then `CC(C)(C)OCCOc1cc(NC(=O)OC(C)(C)C)c(NC(=O)CC(=O)c2cccc(-n3ccnc3)c2)cc1-c1ccc(F)cc1`, with 101 °C; and `CC(C)(C)OC(=O)N[C@@H]1CCC(=O)OC1=O`, with 117 to 119 °C.
As for `NS(=O)(=O)c1cc2cc[nH]c(=O)c2s1`, the melting point lay within 295 to 297 °C.
Then `CC1(C)CC(NC(=O)c2ccc(-c3cc4cc(Cl)c(Cl)cc4[nH]3)c(O)c2)CC(C)(C)N1`, with over 270 °C; and `CCCCc1oc2ccccc2c1Cc1ccc(O)cc1`, with 67 to 70 °C.
For `CN1C(=O)CC(c2ccccc2)C1C(O)C#Cc1ccccc1` (stereo not drawn), the melting point lay in the range of 152 to 153 °C.
For the compound `O=C(O)C=Cc1cccc(Sc2c[nH]c3ccccc23)c1`, the melting point lay in the range of 165 to 167 °C.
Then `C#CCCCCCCOC(=O)COc1ccc(F)c(C(N)=O)c1F`, with 130 to 132 °C; and `CC1(C)CC(=C(c2ccc(O)cc2)c2ccc(-c3ccccc3CO)cc2)CC(C)(C)C1`, with 171 to 172 °C; and `CCOC(=O)C1=CN(c2ccc(Cl)c(Cl)c2Cl)N(N)C1`, with 158 to 159 °C.
Next, `N#CCc1c[nH]c2ccc(CS(=O)(=O)NCc3ccccc3C(N)=O)cc12`: 202 to 206 °C; `Cn1nc(N)c2c(F)cccc21`: 125 to 127 °C; `COc1ccc(N(C(C)=O)C2=NN(c3ccc([N+](=O)[O-])cc3)C(=O)C2Br)cc1` (stereo not drawn): 163 to 164 °C.
Then `CCN(CC)C(C)CN1CCc2c(c(=O)oc3cc(C)c(Cl)cc23)C1` (stereo not drawn), with 78 to 80 °C; and `CCc1nc(Cl)c2c(-c3ccc([N+](=O)[O-])o3)nn(C)c2n1`, with 165 °C; and `COC(=O)CCc1oc(=O)[nH]c1-c1ccc(C(F)(F)F)cc1`, with 156 to 157 °C.
On to `CC1(COc2ccc(OCCNCC(O)COc3ccccc3)cc2)OCCO1` (stereo not drawn), for which the melting point fell in the range of 95 to 97 °C.
Next, `Nc1cc(S)c(Cl)cc1F`: 64.5 to 66 °C.
Regarding `Nc1cc(-c2c[nH]c3ncccc23)c2ccccc2n1`, the melting point stood at 244 °C.
Then `O=C(O)Cc1cc(C=Cc2ccccc2)ccc1O`, with 202 °C.
Then `O=C(O)C1CCCN1C(=O)CCc1cccc(-c2nc(=O)c3ccccc3s2)n1` (stereo not drawn), with 210 to 211 °C; and `Cn1ncc(C(=O)N2CCC2)c1C(=O)Nc1cc2nc(-c3ccccc3)nn2cc1F`, with over 250 °C; and `CC(=O)Nc1cc(Br)c(O)c(Br)c1`, with 155 to 156 °C.
Then `CCC1(C)OC(c2ccc(S(N)(=O)=O)cc2)=C(c2ccsc2)C1=O` (stereo not drawn), with 120 to 121 °C; and `Cc1cc(C)c(Nc2nc(C)ccc2S(=O)(=O)c2ccc(OCc3ccccc3C#N)cc2)c(C)c1`, with 208 to 210 °C.
Compound `Cc1cccc(NC(=O)NCC(=O)N(CC(=O)OC(C)(C)C)c2ccccc2-c2ccccc2)c1` had a melting point of 177 °C.
Next, `C(=C(/c1ccccc1)n1c2ccccc2c2ccccc21)/c1ccccc1`: 160 to 162 °C; `CCOC(=O)c1cncc(C(=O)O)c1`: 180 to 182 °C; `CC(C)C[C@H](NC(=O)[C@H](Cc1c[nH]cn1)NC(=O)[C@H](Cc1cccc2ccccc12)NC(=O)OCc1ccccc1)[C@H](O)CO`: 176 to 178 °C.
Then `O=C1CCC(N2Cc3c(OCc4ccc(Cl)cc4)cccc3C2=O)C(=O)N1` (stereo not drawn), with 224 to 226 °C.
Next, `Cc1nc2sccn2c1C1=NNC(=O)CN1`: 270 to 273 °C.
With `COC(=O)NNC(=S)Cc1ccc(F)cc1`, the melting point is 150 to 152 °C.
Then `CCCN1C(=O)C2(CC)CC(c3ccc(N)cc3)(C2)C1=O`, with 124 to 125 °C; and `Cc1nc(C#CCCn2nc3ccccc3n2)sc1C`, with 96 to 98 °C.
Then `CC(C)(C)OC(=O)NC1CCCCc2cc(OCC3CCCCC3)c(Br)cc21` (stereo not drawn), with 142 to 144 °C; and `CCOC(=O)c1cnc2ccc3nc(Cl)sc3c2c1O`, with over 300 °C; and `CCCCCC(COc1ccc(C(=O)O)cc1)c1ccc2c(c1)C(C)(C)CCS2` (racemic), with 168 to 169 °C.
Then `CCCOC(=O)c1cccc(CCN(C)CCCC(C#N)(c2ccc(OC)c(OC)c2)C(C)C)c1` (stereo not drawn), with 110 to 114 °C; and `Cc1nc(NC(=O)C(c2ccccc2)c2ccccc2)no1`, with 153 °C; and `CC(=O)OCC(C)(C)CS(N)(=O)=O`, with 106 to 109 °C.
With `O=C1c2cccc(NC(=S)Nc3cccc4c3C3CC5(CCN3C4=O)SCCS5)c2C2CC3(CCN12)SCCS3` (stereo not drawn), the melting point is 188 °C.
The compound `CC(C)(C)CN(CC(C)(C)C)C(=O)C(O)(C(=O)O)c1ccc(Cl)c(Cl)c1` (stereo not drawn) yielded a melting point of 94 to 95 °C.
For the compound `NS(=O)(=O)c1ccc(NN=C2C(=O)Nc3ccc(C(=O)NCc4ccncc4)cc32)cc1`, the melting point was in the range of 211 to 215 °C.
On to `COCc1c[nH]c(-c2ccc(O)cc2)n1`, for which the melting point is 191 to 192 °C.
Then `N#CCOc1ccc(CN2C(=O)c3cccc(NC(=O)c4ccc(Cl)s4)c3C2=O)cc1`, with 199 °C.
Then `CC(C)(C)OC(=O)CN1CC(c2cccs2)SCC(N2C(=O)c3ccccc3C2=O)C1=O` (stereo not drawn), with 151 to 152 °C; and `S=C(SCc1ccccc1)N1CC2CCC(CC2)C1`, with 98 to 99 °C; and `O=C(c1ccccc1)c1cc2c(cc1O)C(C(=O)O)CC2` (stereo not drawn), with 185 to 187 °C.
Next, `O=C(CS(=O)Cc1cccnc1)C12CC3CC(CC(C3)C1)C2` (stereo not drawn): 116 to 119 °C; `COc1ccc2c(c1)c1cc(-c3cc(F)cc(F)c3)c(=O)n(C)c1n2C`: 189 °C; `CCOC(=O)c1cc2cc(-c3ccccc3OC)ccc2nn1`: 143 to 145 °C.
Regarding `CN1CCN(NS(=O)(=O)c2cc([N+](=O)[O-])c(Cl)s2)CC1`, the melting point turned out to be 91 °C.
Next, `CCOC(=O)c1c[nH]c2nc(NCc3ccccc3)nn2c1=O`: 275 to 278 °C; `Cc1ccc(S(=O)(=O)Oc2cc(C(C)(C)C)c(SC3=C(O)CC(CCc4ccc(O)cc4)(C4CCCCC4)OC3=O)cc2C)cc1` (stereo not drawn): 105 °C; `COc1ccc(C2C=C3CN(C)CCC3C3C(=O)N(C)C(=O)C23)cc1` (stereo not drawn): 129 to 130 °C.
With `Cc1ccc(C(=O)c2cccc(C)c2N)cc1`, the melting point was 77 to 78 °C.
Then `CC(C)(C)OC(=O)N[C@@H]1CCC[C@@H]1O` (relative stereo), with 64 to 65 °C; and `CCCOc1ccc(-c2ncc(C#N)c(Cl)n2)cc1`, with 193 to 194 °C; and `CCOc1ccc2c(c1)n(C1CCCCC1)c(=O)n2S(=O)(=O)c1ccc(C(=O)NC2Cc3ccccc3C2)cc1OC`, with 160 °C.
Next, `CCOC1CN(Cc2cc(OC)c(OC)c(OC)c2)Cc2cc(OC)c(O)cc21` (stereo not drawn): 94 to 96 °C; `O=C1c2ccccc2C(=O)c2sc(-c3ccc(Cl)o3)nc21`: 258 °C; `C#Cc1cc(Cl)cc(Cl)c1`: 80 to 81.5 °C.
Then `N#Cc1ccc(S(=O)(=O)c2ccc(S(N)(=O)=O)s2)c(F)c1`, with 200 to 202 °C; and `CCOCc1nc2c(N)nc3c(c2n1CCCCCS(N)(=O)=O)CCCC3`, with 203 to 205 °C.
`Cc1nnc2c(Cl)nc3ccc(Cl)cc3n12` returned a melting point of over 280 °C.
In the case of `CC(C)(C)OC(=O)Nc1ccc(C#Cc2ccc(F)cc2)cc1[N+](=O)[O-]`, the melting point lay within 157 to 158 °C.
Next, `O=C(NC(Cc1ccc(C(F)(F)F)cc1)C(=O)c1ccc(F)cc1)c1cc(=O)cco1` (stereo not drawn): 115 to 116 °C; `CC(C)NP(N)(=O)NC(=O)c1ccc(F)cc1` (stereo not drawn): 197 to 199 °C; `O=C(c1ccc(S)cc1)c1ccc([N+](=O)[O-])cc1`: 116 to 117 °C.
Then `CN(Cc1ccc(CCC(=O)Nc2ccc(-c3ccc(Cl)cc3)cc2)cc1)C1CCOCC1`, with 167 to 173 °C.
`CN1CC[C@@H]2CC(=O)c3cc4c(cc3[C@@H]2C1)OCO4` (relative stereo) displayed a melting point of over 250 °C.
Next, `O=C(c1ccccc1)C(c1ccc(Cl)cc1)c1c(Cl)cc(-n2ncc(=O)[nH]c2=O)cc1Cl` (stereo not drawn): 143 °C; `CC(C)(C)c1ccc2oc(C(=O)CBr)cc2c1`: 100 to 102 °C.
On to `Cc1ccc(C2COc3c(ccc(O)c3C)C2)cc1` (stereo not drawn), for which the melting point lay in the range of 136 to 137 °C.
Next, `CCCC1=C(C(=O)OCC)C(c2cccc(F)c2C)c2c[nH]nc2N1` (stereo not drawn): 159 to 162 °C; `O=C(CON1C(=O)c2ccccc2C1=O)NOCc1ccccc1`: 118 to 120 °C.
Next, `CCOc1ccc(S(=O)(=O)N2CCN(C)CC2)cc1C#N`: 130 to 131 °C.
`C=C1CCCC2CCC3C(CCC4(C)C3C(C=O)C35OCCOC43OCCO5)C12C` (stereo not drawn) came in with a melting point of 192 °C.
In turn, `COc1ccc(N=C(Cl)c2ccc(OC)cc2)cc1` registered a melting point of 116 °C.
Then `O=C(Nc1ccc2cc(CN3CCCC3)cnc2c1F)c1ccc(-c2ccc(Cl)cc2)cc1`, with 206 to 208 °C.
